Like-named read-outs stand apart in the source and are kept apart here.
Tests used:
[1] = in vivo; cited from earlier work
M. tuberculosis H37Rv = type: in vivo, Mycobacterium tuberculosis; conditions: for Mean (SD) log10 M. tuberculosis CFU/lung: 5 days per week
[2] = target: mycobacterial ATP synthase (Mycobacterium tuberculosis, UniProt P9WPS1+P9WPV7); conditions: cited from earlier work
[3] = Oral (PO) 13 week toxicity study, comparison with dog IM/SC exposure; type: in vivo, beagle dog; conditions: 13 week PO study, 18 mg/kg
[4] = Oral (PO) 13 week toxicity study in rats, total exposure; type: in vivo; conditions: rat, top dose of 13 week study
M lepra = conditions: cited from earlier work

CNCC[C@@](O)(c1cccc2ccccc12)[C@H](c1ccccc1)c1cc2cc(Br)ccc2nc1OC [Formulation M2]
mean terminal elimination half-life [1]: approximately 5.5 months

CO[C@H]1/C=C/O[C@@]2(C)Oc3c(C)c(O)c4c(O)c(c(/C=N/N5CCN(C)CC5)c(O)c4c3C2=O)NC(=O)/C(C)=C\C=C\[C@H](C)[C@H](O)[C@@H](C)[C@@H](O)[C@@H](C)[C@H](OC(C)=O)[C@@H]1C [R, rifampin]
reduction of mean M. tuberculosis lung CFU count compared to untreated mice (M. tuberculosis H37Rv; 10 mg/kg by gavage 5/7, after 4 weeks of treatment): approximately 1 log10 CFU/lung
reduction of mean M. tuberculosis lung CFU count compared to untreated mice (M. tuberculosis H37Rv; 10 mg/kg by gavage 5/7, after 8 weeks of treatment): about 2 log10 CFU/lung
reduction of mean M. tuberculosis lung CFU count compared to untreated mice (M. tuberculosis H37Rv; 10 mg/kg by gavage 5/7, after 12 weeks of treatment): ~3 log10 CFU/lung
Mean (SD) log10 M. tuberculosis CFU/lung (M. tuberculosis H37Rv; regimen R10 (5/7): rifampin 10 mg/kg, Week 4 of treatment): 3.39 (0.46) log10 CFU/lung
Mean (SD) log10 M. tuberculosis CFU/lung (M. tuberculosis H37Rv; regimen R10 (5/7): rifampin 10 mg/kg, Week 8 of treatment): 2.74 (0.62) log10 CFU/lung
Mean (SD) log10 M. tuberculosis CFU/lung (M. tuberculosis H37Rv; regimen R10 (5/7): rifampin 10 mg/kg, Week 12 of treatment): 1.27 (0.85) log10 CFU/lung

COc1nc2ccc(Br)cc2cc1[C@@H](c1ccccc1)[C@@](O)(CCN(C)C)c1cccc2ccccc12 [bedaquiline]
selectivity index for mycobacterial ATP synthase versus eukaryotic mitochondrial ATP synthase [2]: more than 20000
mean terminal elimination half-life [1]: approximately 5.5 months
total exposure after PO for the same period [3]: 13 988 520 ng·h/mL
total exposure after PO administration during 3 months [4]: 2 385 383 ng·h/mL
decline in lung CFU compared to untreated control mice (M. tuberculosis H37Rv; 2.67 mg/kg by gavage 5/7, 12 weeks (total 160 mg/kg)): 1.7 log10 CFU/lung
decline in lung CFU counts (M. tuberculosis H37Rv; 5.33 mg/kg by gavage 5/7, 12 weeks (total 320 mg/kg)): about 3 log10 CFU/lung
additional decrease of lung CFU counts (M. tuberculosis H37Rv; 8 mg/kg by gavage 5/7, 8 weeks versus 4 weeks): 1 log10
decline in lung CFU relative to untreated mice (M. tuberculosis H37Rv; 8 mg/kg by gavage 5/7, four weeks): about 1.5 log10 CFU/lung
reduction of M. tuberculosis lung CFU compared to untreated mice (M. tuberculosis H37Rv; 25 mg/kg by gavage 5/7, after 4 weeks): about 1.7 log10 CFU/lung
reduction of M. tuberculosis lung CFU compared to untreated mice (M. tuberculosis H37Rv; 25 mg/kg by gavage 5/7, after 8 weeks): ~4.0 log10 CFU/lung
reduction of M. tuberculosis lung CFU compared to untreated mice (M. tuberculosis H37Rv; 25 mg/kg by gavage 5/7, after 12 weeks): ~4.9 log10 CFU/lung
Mean (SD) log10 M. tuberculosis CFU/lung (M. tuberculosis H37Rv; regimen B2.67 (5/7): oral bedaquiline 2.67 mg/kg, Week 4 of treatment): 3.96 (0.35) log10 CFU/lung
Mean (SD) log10 M. tuberculosis CFU/lung (M. tuberculosis H37Rv; regimen B2.67 (5/7): oral bedaquiline 2.67 mg/kg, Week 8 of treatment): 3.52 (0.38) log10 CFU/lung
Mean (SD) log10 M. tuberculosis CFU/lung (M. tuberculosis H37Rv; regimen B2.67 (5/7): oral bedaquiline 2.67 mg/kg, Week 12 of treatment): 3.16 (0.24) log10 CFU/lung
Mean (SD) log10 M. tuberculosis CFU/lung (M. tuberculosis H37Rv; regimen B5.33 (5/7): oral bedaquiline 5.33 mg/kg, Week 4 of treatment): 3.83 (0.25) log10 CFU/lung
Mean (SD) log10 M. tuberculosis CFU/lung (M. tuberculosis H37Rv; regimen B5.33 (5/7): oral bedaquiline 5.33 mg/kg, Week 8 of treatment): 3.15 (0.47) log10 CFU/lung
Mean (SD) log10 M. tuberculosis CFU/lung (M. tuberculosis H37Rv; regimen B5.33 (5/7): oral bedaquiline 5.33 mg/kg, Week 12 of treatment): 1.98 (0.17) log10 CFU/lung
Mean (SD) log10 M. tuberculosis CFU/lung (M. tuberculosis H37Rv; regimen B8 (5/7): oral bedaquiline 8 mg/kg, Week 4 of treatment): 3.30 (0.12) log10 CFU/lung
Mean (SD) log10 M. tuberculosis CFU/lung (M. tuberculosis H37Rv; regimen B8 (5/7): oral bedaquiline 8 mg/kg, Week 8 of treatment): 2.42 (0.26) log10 CFU/lung
Mean (SD) log10 M. tuberculosis CFU/lung (M. tuberculosis H37Rv; regimen B8 (5/7): oral bedaquiline 8 mg/kg, Week 12 of treatment): 0.69 (0.43) log10 CFU/lung
Mean (SD) log10 M. tuberculosis CFU/lung (M. tuberculosis H37Rv; regimen B25 (5/7): oral bedaquiline 25 mg/kg, Week 4 of treatment): 3.01 (0.45) log10 CFU/lung
Mean (SD) log10 M. tuberculosis CFU/lung (M. tuberculosis H37Rv; regimen B25 (5/7): oral bedaquiline 25 mg/kg, Week 8 of treatment): 0.82 (0.49) log10 CFU/lung
Mean (SD) log10 M. tuberculosis CFU/lung (M. tuberculosis H37Rv; regimen B25 (5/7): oral bedaquiline 25 mg/kg, Week 12 of treatment): 0.07 (0.09) log10 CFU/lung
minimal dose killing 99% of bacilli (M lepra): < 5.0 mg/kg/wk

Source: US11141384B2, “Long-acting formulations” (Janssen Pharmaceutica NV, priority 2017, dated 2021)
